Data taken from the supplement of paper PMC4858399.
Counter-ions that a name gives are not always drawn.

Assays:
Settings in all cases: exposure time 48 h
[1] = system: Caenorhabditis elegans N2; assay: AC50 for larval growth inhibition (Hill fit); higher = less potent
In short: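 After 48 h at 20°C in K-medium with killed OP50, 1% DMSO and 0.5–200 µM chemical, synchronised C. elegans N2 L1 larvae (50 per well, 96-well plates) were sized individually as extinction on a COPAS Biosort. These values were log-transformed and averaged per well, and wells with fewer than 10 worms were excluded. The AC50 was derived from a constrained Hill fit by weighted genetic-algorithm regression, and out-of-range values are censored.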

[2] = system: Caenorhabditis elegans N2; assay: lowest effective concentration for larval growth inhibition (size below effect threshold); higher = less potent
In short: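 C. elegans N2 L1 larvae (50 per 96-well) were grown 48 h at 20°C in K-medium with killed bacteria, 1% DMSO and 0.5, 1, 5, 10, 50, 100 or 200 µM chemical. The Biosort measured per-worm extinction as size, and these were log-transformed into well means. The lowest effective concentration is the first dose where the plate-adjusted mean size drops under the 5.665 threshold and stays under it at higher doses.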

[3] = system: Caenorhabditis elegans N2; assay: mean nematode size ln(EXT) after 48 h, plate-adjusted (DMSO control set to 6) (ln(EXT), control-adjusted); higher = larger nematodes / less growth inhibition
In short: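 Worms were measured individually for extinction on the Biosort after 48 h at 20°C. They began as synchronised C. elegans N2 L1 larvae in K-medium with killed OP50, 1% DMSO and 0.5–200 µM chemical. Once debris had been removed by a growth model, values were natural-logged and averaged per well to give mean size. The plate adjustment subtracted the vehicle control mean and added 6.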

Row | SMILES | AC50 for larval growth inhibition [1] [µM] | lowest effective concentration [2] [µM] | mean nematode size ln(EXT) (ln) ([3]; 0.5 µM) | mean nematode size ln(EXT) (ln) ([3]; 1 µM) | mean nematode size ln(EXT) (ln) ([3]; 5 µM) | mean nematode size ln(EXT) (ln) ([3]; 10 µM) | mean nematode size ln(EXT) (ln) ([3]; 50 µM) | mean nematode size ln(EXT) (ln) ([3]; 100 µM) | mean nematode size ln(EXT) (ln) ([3]; 200 µM)
1 | CNC(=O)Oc1cccc(/N=C/N(C)C)c1 [Formetanate hydrochloride] | 62.8 | 100 | 5.85 | 6.01 | 6 | 5.93 | 5.73 | 5.59 | 5.47
2 | c1ccc2ccccc2c1 [Naphthalene] | > 200 | 200 | 5.99 | 5.93 | 5.96 | 5.78 | 5.87 | 5.92 | 4.83
3 | S=C([S-])NCCNC(=S)[S-].[Mn+2] [Maneb] | > 200 | 200 | 5.91 | 5.98 | 6.05 | 5.98 | 5.9 | 5.83 | 5.52
4 | O=C1CN(/N=C/c2ccc([N+](=O)[O-])o2)C(=O)N1 [Nitrofurantoin] | > 200 | 200 | 5.9 | 5.88 | 5.88 | 5.88 | 5.81 | 5.84 | 5.46
5 | O=C(Nc1ccc([N+](=O)[O-])cc1Cl)c1cc(Cl)ccc1O [Niclosamide] | 98.6 | 200 | 5.85 | 5.9 | 5.86 | 6.1 | 6.02 | 5.74 | 5.59
6 | CCOc1ccc2c(c1)C(C)=CC(C)(C)N2 [Ethoxyquin] | > 200 | 100 | 5.78 | 5.74 | 5.77 | 5.78 | 5.71 | 5.61 | 5.17
7 | O=[N+]([O-])c1ccc(O)c([N+](=O)[O-])c1 [2,4-Dinitrophenol] | > 200 | 200 | 5.82 | 5.79 | 5.78 | 5.83 | 5.83 | 5.75 | 5.52
8 | COc1ccc(C(c2ccc(OC)cc2)C(Cl)(Cl)Cl)cc1 [Methoxychlor] | 39 | ≤ 0.5 | 5.6 | 5.46 | 5.58 | 5.19 | 4.71 | 4.01 | 3.61
9 | CCN(CC)CCNc1ccc(CNC=O)c2sc3ccc(OC)cc3c(=O)c12 | 107 | 10 | 5.89 | 5.87 | 5.75 | 5.65 | 5.25 | 4.73 | 3.81
10 | CCCCCCCCCCCCN1CCCC1=O [N-Lauryl-2-pyrrolidone] | 16.1 | ≤ 0.5 | 5.42 | 5.51 | 5.45 | 4.97 | 3.49 | 3.53 | 3.03
11 | Cc1c(F)c(F)c(COC(=O)[C@@H]2[C@H](/C=C(\Cl)C(F)(F)F)C2(C)C)c(F)c1F (racemic) [Tefluthrin] | > 200 | 50 | 5.7 | 5.77 | 5.71 | 5.79 | 5.39 | 5.29 | 5.13
12 | O=C1C2CC=CCC2C(=O)N1SC(Cl)(Cl)Cl (stereo not drawn) [Captan] | 85.6 | 50 | 5.8 | 5.75 | 5.73 | 5.84 | 5.45 | 4.27 | 3.67
13 | CC(C)(C)CC(C)(C)c1ccc(O)cc1 [4-(1,1,3,3-Tetramethylbutyl)phenol] | 101 | 50 | 6.09 | 6.01 | 6.04 | 5.97 | 5.53 | 4.62 | 3.54
14 | CCOC(=O)C(C)Oc1ccc(Oc2nc3ccc(Cl)cc3o2)cc1 (stereo not drawn) [Fenoxaprop-ethyl] | 76.3 | 100 | 5.83 | 6.04 | 6 | 5.97 | 5.68 | 5.4 | 5.18
15 | Nc1ccc(Oc2ccc(N)cc2)cc1 [4,4'-Oxydianiline] | > 200 | 200 | 5.84 | 5.87 | 5.84 | 5.83 | 5.54 | 5.83 | 5.39
16 | CCOC(=O)O[C@H](C)OC(=O)c1ccc2c(c1)cc(C(=O)NC1CCN(C(C)C)CC1)n2Cc1cc(-c2ccc(Cl)s2)on1 | 78.2 | 50 | 5.85 | 5.86 | 5.87 | 5.76 | 4.76 | 4.59 | 3.71
17 | CCCCOC(=O)[C@H](C)Oc1ccc(Oc2ccc(C#N)cc2F)cc1 [Cyhalofop-butyl] | 107 | 200 | 6 | 6 | 6.12 | 6.17 | 6.08 | 5.91 | 5.22
18 | CCCCC(CC)COC(=O)CC(C(=O)OCC(CC)CCCC)S(=O)(=O)O (stereo not drawn) [Docusate sodium] | 57.1 | 50 | 5.96 | 5.98 | 5.93 | 5.93 | 4.65 | 4.05 | 3.28
19 | COc1cc(OC)nc(NC(=O)NS(=O)(=O)c2ncccc2OCC(F)(F)F)n1 [Trifloxysulfuron-sodium] | 196 | 200 | 5.81 | 5.77 | 6.02 | 5.88 | 5.9 | 5.97 | 5.51

Row | SMILES | AC50 for larval growth inhibition [1] [µM] | lowest effective concentration [2] [µM] | mean nematode size ln(EXT) (ln) ([3]; 0.5 µM) | mean nematode size ln(EXT) (ln) ([3]; 1 µM) | mean nematode size ln(EXT) (ln) ([3]; 5 µM) | mean nematode size ln(EXT) (ln) ([3]; 10 µM) | mean nematode size ln(EXT) (ln) ([3]; 50 µM) | mean nematode size ln(EXT) (ln) ([3]; 100 µM) | mean nematode size ln(EXT) (ln) ([3]; 200 µM)
20 | O=c1[nH]cc(F)c(=O)[nH]1 [5-Fluorouracil] | 162 | 50 | 5.8 | 5.84 | 5.91 | 5.82 | 5.63 | 5.3 | 4.19
21 | O=C(O)CN(CC(=O)O)CC(=O)O [Nitrilotriacetic acid] | > 200 | 200 | 5.78 | 5.83 | 5.87 | 5.88 | 5.91 | 5.88 | 5.21
22 | c1cc2ccc3cccc4ccc(c1)c2c34 [Pyrene] | 4.29 | 1 | 5.71 | 5.58 | 4.64 | 4.52 | 4.28 | 4.05 | 3.59
23 | Oc1cc2ccccc2c2ccccc12 [9-Phenanthrol] | 119 | 50 | 5.85 | 5.85 | 5.84 | 5.72 | 5.41 | 4.71 | 4.03
24 | Fc1ccccc1[C@@H](F)CO[C@H]1CC[C@H](Nc2[nH]cnc3nncc2-3)CC1 | > 200 | 100 | 5.89 | 5.84 | 5.82 | 5.68 | 5.67 | 5.25 | 5.4
25 | CCCCCC/C(C=O)=C\c1ccccc1 [2-Benzylideneoctanal] | 28.8 | 50 | 5.84 | 5.85 | 5.79 | 5.69 | 5.13 | 5.22 | 5.01
26 | COc1ccc(OC(F)(F)F)cc1CN[C@H]1CCCN[C@H]1c1ccccc1 | 185 | 50 | 6.04 | 5.82 | 5.68 | 5.67 | 5.39 | 4.71 | 4.55
27 | CCOP(=S)(OCC)Oc1nc(Cl)c(Cl)cc1Cl [Chlorpyrifos] | 2.28 | ≤ 0.5 | 5.55 | 5.06 | 4.29 | 3.42 | 3.29 | 3.43 | 3.06
28 | COc1ccc(O)c(C(C)(C)C)c1 [2-tert-Butyl-4-methoxy-phenol] | > 200 | 200 | 5.78 | 5.98 | 5.87 | 5.84 | 5.94 | 5.8 | 5.54
29 | Nc1ccc(Nc2ccccc2)cc1 [N-Phenyl-1,4-benzenediamine] | 71.8 | 50 | 5.84 | 5.84 | 5.76 | 5.72 | 5.43 | 5.15 | 5.25
30 | COC(=O)CCCCC(=O)OC [Dimethyl adipate] | > 200 | 200 | 5.82 | 5.88 | 5.81 | 5.79 | 5.85 | 5.85 | 5.65
31 | CCCCCCCCCC[N+](C)(C)CCCCCCCCCC [Didecyl dimethyl ammonium chloride] | 17 | 10 | 5.9 | 5.91 | 5.88 | 5.51 | 3.71 | 3.63 | 3.62
32 | CC[C@H](C)C(=O)O[C@H]1C[C@@H](C)C=C2C=C[C@H](C)[C@H](CC[C@@H]3C[C@@H](O)CC(=O)O3)[C@H]21 [Lovastatin] | > 200 | 50 | 5.85 | 5.83 | 5.8 | 5.83 | 5.65 | 5.23 | 5.06
33 | Cc1ccc2ncccc2c1 [6-Methylquinoline] | > 200 | 200 | 5.98 | 5.83 | 5.87 | 5.76 | 5.74 | 5.67 | 5.52
34 | Nc1ccc(Cc2ccc(N)cc2)cc1 [4,4'-Methylenedianiline] | > 200 | 200 | 5.98 | 5.73 | 5.91 | 5.78 | 5.87 | 5.92 | 5.53
35 | CCCCCCCCN(C)C [N,N-Dimethyloctylamine] | > 200 | 200 | 5.85 | 5.83 | 5.81 | 5.79 | 5.85 | 5.88 | 5.65
36 | Clc1ccc(C(c2ccccc2Cl)C(Cl)(Cl)Cl)cc1 (stereo not drawn) [o,p'-DDT] | 24.1 | 10 | 5.7 | 5.89 | 5.78 | 5.19 | 4.4 | 4.09 | 3.85
37 | Cc1nc(-c2ccc3c(c2)CCN(CCC2CCC(NC(=O)/C=C/c4ccc(F)cc4)CC2)CC3)no1 (stereo not drawn) | > 200 | 100 | 5.87 | 5.83 | 5.82 | 5.86 | 5.74 | 5.6 | 5.59
